From BindingDB's records for doi:10.1016/j.bmcl.2007.11.087 (Bristol-Myers Squibb, 2008)

assay: Antagonist activity at human CCR3 receptor assessed as inhibition of chemotaxis in eosinophil

Which IC50 does the source give for `C[C@@H](NC(=O)Nc1cccc(-c2nnnn2C)c1)[C@@H](O)CN(C)[C@@H](C)[C@@H](O)c1ccccc1` [1-((2R,3S)-3-hydroxy-4-(((1S,2S)-1-hydroxy-1-phenylpropan-2-yl)(methyl)amino)butan-2-yl)-3-(3-(1-methyl-1H-tetrazol-5-yl)phenyl)urea] here?
The IC50 was 22 nM.

With `CCc1cc(NC(=O)N[C@H](C)[C@@H](O)CN(CCCc2ccc(F)cc2)CC2CC2)cc(-c2nnnn2C)c1` [1-((2R,3S)-4-((cyclopropylmethyl)(3-(4-fluorophenyl)propyl)amino)-3-hydroxybutan-2-yl)-3-(3-ethyl-5-(1-methyl-1H-tetrazol-5-yl)phenyl)urea] as the molecule, how does the IC50 read?
Its IC50 is 0.005 nM.

Which IC50 does the source give for `C[C@@H](NC(=O)Nc1cccc(-c2nnnn2C)c1)[C@@H](O)CN1CCC[C@@H](Cc2ccc(F)cc2)C1` [1-{(1R,2S)-3-[(S)-3-(4-Fluoro-benzyl)-piperidin-1-yl]-2-hydroxy-1-methyl-propyl}-3-[3-(1-methyl-1H-tetrazol-5-yl)-phenyl]-urea] here?
The IC50 was 0.038 nM.

With `CCc1cc(NC(=O)N[C@H](C)[C@@H](O)CN(CC)CCCc2ccc(F)cc2)cc(-c2nnnn2C)c1` [1-((2R,3S)-4-(ethyl(3-(4-fluorophenyl)propyl)amino)-3-hydroxybutan-2-yl)-3-(3-ethyl-5-(1-methyl-1H-tetrazol-5-yl)phenyl)urea] as the molecule, how does the IC50 read?
Its IC50 is 0.004 nM.

With `CCc1cc(NC(=O)N[C@H](C)[C@@H](O)CN(C)CCCc2ccc(F)cc2)cc(-c2nnnn2C)c1` [1-(3-ethyl-5-(1-methyl-1H-tetrazol-5-yl)phenyl)-3-((2R,3S)-4-((3-(4-fluorophenyl)propyl)(methyl)amino)-3-hydroxybutan-2-yl)urea] as the molecule, how does the IC50 read?
Its IC50 is 2.6 nM.
